Source: patent US6737383B1, “Herbicidal oxadiazolidines” (priority 1999, dated 2004)

Legend:
soybean = experiment: Test B pre/postemergence soybean; type: in vivo, Glycine max
In short: (§1)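 Test chemicals in a non-phytotoxic solvent mixture with surfactant were sprayed preemergence onto planted seeds and postemergence onto plants 2 to 18 cm tall (1- to 4-leaf stage). After twelve to sixteen days in a greenhouse, injury was visually rated against untreated controls from 0 (no effect) to 10 (complete control).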

crabgrass = experiment: Test B pre/postemergence crabgrass; type: in vivo, Digitaria sanguinalis
In short: as §1

blackgrass = experiment: Test B pre/postemergence blackgrass; type: in vivo, Alopecurus myosuroides
In short: as §1

sugar beet = experiment: Test B pre/postemergence sugar beet; type: in vivo, Beta vulgaris
In short: as §1

wild oat = experiment: Test B pre/postemergence wild oat; type: in vivo, Avena fatua
In short: as §1

velvetleaf = experiment: Test B pre/postemergence velvetleaf; type: in vivo, Abutilon theophrasti
In short: as §1

surinam grass = experiment: Test B pre/postemergence surinam grass; type: in vivo, Brachiaria decumbens
In short: as §1

rape = experiment: Test B pre/postemergence rape; type: in vivo, Brassica napus
In short: as §1

giant foxtail = experiment: Test B pre/postemergence giant foxtail; type: in vivo, Setaria faberii
In short: as §1

bedstraw = experiment: Test B pre/postemergence bedstraw; type: in vivo, Galium aparine; details: Preemergence
In short: as §1

wheat = experiment: Test B pre/postemergence wheat; type: in vivo, Triticum aestivum
In short: as §1

morningglory = experiment: Test B pre/postemergence morningglory; type: in vivo, Ipomoea hederacea
In short: as §1

purple nutsedge = experiment: Test B pre/postemergence purple nutsedge; type: in vivo, Cyperus rotundus
In short: as §1

pigweed = experiment: Test B pre/postemergence pigweed; type: in vivo, Amaranthus retroflexus
In short: as §1

corn = experiment: Test B pre/postemergence corn; type: in vivo, Zea mays
In short: as §1

cocklebur = experiment: Test B pre/postemergence cocklebur; type: in vivo, Xanthium strumarium
In short: as §1

[1] = Postemergence, Rate 62 g/ha, scale 0 to 10, 0 is no effect, 10 is complete control
[2] = Postemergence, Rate 125 g/ha, scale of 0 to 10 where 0 is no effect and 10 is complete control
[3] = Preemergence, Rate 62 g/ha, scale of 0 to 10 where 0 is no effect and 10 is complete control
[4] = Preemergence, Rate 125 g/ha, scale of 0 to 10 where 0 is no effect and 10 is complete control
[5] = Preemergence, Rate 250 g/ha, scale 0 (no effect) to 10 (complete control)
[6] = Rate 250 g/ha, Postemergence, scale 0 to 10, 0 is no effect, 10 is complete control
[7] = Rate 500 g/ha, Postemergence, scale 0 to 10, 0 is no effect, 10 is complete control
[8] = Preemergence, Rate 500 g/ha, scale of 0 to 10 where 0 is no effect and 10 is complete control

## CC(C)N(C(=O)n1oc(=O)n(CCCCl)c1=O)c1ccc(F)cc1 [Compound 713]
soybean; [1]
  Plant response rating, Soybean: 3
soybean; [2]
  Soybean plant response rating: 4
soybean; [3]
  Soybean plant response rating: 0
soybean; [4]
  Plant response rating, Soybean: 0
soybean; [5]
  Soybean plant response rating: 0
soybean; [6]
  Soybean plant response rating: 5
soybean; [7]
  Soybean plant response rating: 5
crabgrass; [1]
  Plant response rating, Crabgrass: 2
crabgrass; [2]
  Crabgrass plant response rating: 9
crabgrass; [3]
  Crabgrass plant response rating: 10
crabgrass; [4]
  Plant response rating, Crabgrass: 10
crabgrass; [5]
  Crabgrass plant response rating: 10
crabgrass; [6]
  Crabgrass plant response rating: 9
crabgrass; [7]
  Crabgrass plant response rating: 9
blackgrass; [1]
  Plant response rating, Blackgrass: 1
blackgrass; [2]
  Blackgrass plant response rating: 3
blackgrass; [3]
  Blackgrass plant response rating: 5
blackgrass; [4]
  Plant response rating, Blackgrass: 8
blackgrass; [5]
  Blackgrass plant response rating: 9
blackgrass; [8]
  Plant response rating, Blackgrass: 9
blackgrass; [6]
  Blackgrass plant response rating: 7
blackgrass; [7]
  Blackgrass plant response rating: 7
Sugar beet; [1]
  Plant response rating, Sugarbeets: 0
Sugar beet; [2]
  Sugarbeets plant response rating: 0
Sugar beet; [3]
  Sugarbeets plant response rating: 3
Sugar beet; [4]
  Plant response rating, Sugarbeets: 4
Sugar beet; [5]
  Sugarbeets plant response rating: 7
Sugar beet; [6]
  Sugarbeets plant response rating: 0
Sugar beet; [7]
  Sugarbeets plant response rating: 5
Wild oat; [1]
  Plant response rating, Wild oats: 0
Wild oat; [2]
  Wild oats plant response rating: 0
Wild oat; [3]
  Wild oats plant response rating: 2
Wild oat; [4]
  Plant response rating, Wild oats: 5
Wild oat; [5]
  Wild oats plant response rating: 8
Wild oat; [6]
  Wild oats plant response rating: 1
Wild oat; [7]
  Wild oats plant response rating: 5
velvetleaf; [1]
  Plant response rating, Velvetleaf: 3
velvetleaf; [2]
  Velvetleaf plant response rating: 6
velvetleaf; [3]
  Velvetleaf plant response rating: 2
velvetleaf; [4]
  Plant response rating, Velvetleaf: 5
velvetleaf; [5]
  Velvetleaf plant response rating: 5
velvetleaf; [6]
  Velvetleaf plant response rating: 6
velvetleaf; [7]
  Velvetleaf plant response rating: 7
Surinam grass; [1]
  Plant response rating, B. signalgrass: 0
Surinam grass; [2]
  B. signalgrass plant response rating: 3
Surinam grass; [3]
  B. signalgrass plant response rating: 5
Surinam grass; [4]
  Plant response rating, B. signalgrass: 7
Surinam grass; [5]
  B. signalgrass plant response rating: 8
Surinam grass; [8]
  Plant response rating, B. signalgrass: 9
Surinam grass; [6]
  B. signalgrass plant response rating: 5
Surinam grass; [7]
  B. signalgrass plant response rating: 7
rape; [1]
  Plant response rating, Rape: 0
rape; [2]
  Rape plant response rating: 0
rape; [3]
  Rape plant response rating: 4
rape; [4]
  Plant response rating, Rape: 4
rape; [5]
  Rape plant response rating: 8
rape; [6]
  Rape plant response rating: 6
rape; [7]
  Rape plant response rating: 6
Giant foxtail; [1]
  Plant response rating, Giant foxtail: 4
Giant foxtail; [2]
  Giant foxtail plant response rating: 9
Giant foxtail; [3]
  Giant foxtail plant response rating: 10
Giant foxtail; [4]
  Plant response rating, Giant foxtail: 10
Giant foxtail; [5]
  Giant foxtail plant response rating: 10
Giant foxtail; [6]
  Giant foxtail plant response rating: 9
Giant foxtail; [7]
  Giant foxtail plant response rating: 9
bedstraw; Rate 62 g/ha, scale of 0 to 10 where 0 is no effect and 10 is complete control
  Bedstraw plant response rating: 0
bedstraw; Rate 125 g/ha, scale of 0 to 10 where 0 is no effect and 10 is complete control
  Plant response rating, Bedstraw: 0
bedstraw; Rate 250 g/ha, scale 0 (no effect) to 10 (complete control)
  Bedstraw plant response rating: 2
bedstraw; Rate 500 g/ha, scale of 0 to 10 where 0 is no effect and 10 is complete control
  Plant response rating, Bedstraw: 6
wheat; [1]
  Plant response rating, Wheat: 0
wheat; [2]
  Wheat plant response rating: 1
wheat; [3]
  Wheat plant response rating: 0
wheat; [4]
  Plant response rating, Wheat: 0
wheat; [5]
  Wheat plant response rating: 1
wheat; [6]
  Wheat plant response rating: 2
wheat; [7]
  Wheat plant response rating: 2
morningglory; [1]
  Plant response rating, Morningglory: 2
morningglory; [2]
  Morningglory plant response rating: 3
morningglory; [3]
  Morningglory plant response rating: 0
morningglory; [4]
  Plant response rating, Morningglory: 0
morningglory; [5]
  Morningglory plant response rating: 0
morningglory; [6]
  Morningglory plant response rating: 7
morningglory; [7]
  Morningglory plant response rating: 10
Purple nutsedge; [1]
  Plant response rating, Nutsedge: 0
Purple nutsedge; [2]
  Nutsedge plant response rating: 0
Purple nutsedge; [3]
  Nutsedge plant response rating: 0
Purple nutsedge; [4]
  Plant response rating, Nutsedge: 0
Purple nutsedge; [5]
  Nutsedge plant response rating: 0
Purple nutsedge; [6]
  Nutsedge plant response rating: 0
Purple nutsedge; [7]
  Nutsedge plant response rating: 3
pigweed; [1]
  Plant response rating, Redroot pigweed: 2
pigweed; [3]
  Redroot pigweed plant response rating: 6
pigweed; [4]
  Plant response rating, Redroot pigweed: 7
pigweed; [5]
  Redroot pigweed plant response rating: 8
pigweed; [6]
  Redroot pigweed plant response rating: 9
pigweed; [7]
  Redroot pigweed plant response rating: 9
corn; [1]
  Plant response rating, Corn: 0
corn; [2]
  Corn plant response rating: 0
corn; [3]
  Corn plant response rating: 0
corn; [4]
  Plant response rating, Corn: 0
corn; [5]
  Corn plant response rating: 0
corn; [6]
  Corn plant response rating: 0
corn; [7]
  Corn plant response rating: 5
cocklebur; [1]
  Plant response rating, Cocklebur: 1
cocklebur; [2]
  Cocklebur plant response rating: 2
cocklebur; [3]
  Cocklebur plant response rating: 0
cocklebur; [4]
  Plant response rating, Cocklebur: 0
cocklebur; [5]
  Cocklebur plant response rating: 0
cocklebur; [8]
  Plant response rating, Cocklebur: 0
cocklebur; [6]
  Cocklebur plant response rating: 3
cocklebur; [7]
  Cocklebur plant response rating: 6
